Laboratory results taken from patent US20260102383A1, “LPAR1 Inhibitors” (AbbVie Inc., priority 2024, published 2026).

Target: T1, human LPAR1 (Homo sapiens, UniProt Q92633)
T1 construct: host or cells: TangoEDG2-bla U2OS cells
Experiment: Arrestin assay (Arrestin Reporter EDG2-bla U2OS), inhibition of LPA-stimulated signal
Format: cell-based
Settings: TangoEDG2-bla U2OS cells expressing human LPAR1; 0.25 μM LPA; read-out: Arrestin Reporter EDG2-bla U2OS Human Merged IC50
Description: The inhibitory activity of compounds 15, 62, 77, 84 and 169 against LPAR1 was measured using an Arrestin assay in U2OS cells expressing human LPAR1.
FreeStyle media was warmed in a 37° C. water bath. Cryo-preserved vial(s) of TangoEDG2-bla U2OS cells were rapidly thawed in a 37° C. water bath. The thawed cells were added to FreeStyle media and cells were pelleted at 300×g for 5 minutes. The supernatant was aspirated, and cells were resuspended in FreeStyle media. Cell density was adjusted to 0.25×10^6 cells/mL. Cells (1×10^4 in 40 μL) were added to each well of Greiner 384 well black cell plate(s). Cell plate(s) were placed in a humidified 37° C./5% CO2 incubator for 18-20 hours. Dilutions of test compound were prepared at 6× final concentration; 12-point, 3-fold dilutions using HH Buffer (1×HBSS plus 20 mM HEPES). The 6× test compound was then added to the cell plate(s) at 10 μL/well. The final concentration ranged from 10 μM to 0.00006 μM. Cell plate(s) were incubated in a humidified 37° C./5% CO2 incubator for 1 hour. During the incubation, 6×LPA was prepared at 1.5 μM in 0.1% BSA HH Buffer. After the 1-hour incubation of test compound with cells, the LPA was added to the cell plate(s) at 10 μL/well (final LPA concentration of 0.25 μM). Cell plate(s) were returned to a humidified 37° C./5% CO2 incubator for 3 hours. The Development solution was made up per the LiveBLAzerFRET B/G kit protocol. The Development solution was added to the cell plate(s) at 10 μL/well. Cell plates were incubated in the dark at room temperature for 2 hours. Plate(s) were read on an Envision Plate Reader (Perkin Elmer) to read fluorescence; excitation at 409 nm with emission at 460 nm and 530 nm. Raw Data for analysis is the ratio of emission at 460 nm divided by emission 530 nm. The formula used to determine % Inhibition is as follows (1−(Raw Data−Low Average)/(High Average−Low Average))*100. Percent Inhibition was plotted to determine IC50 value with GraphPad Prism 9.5.0 software using Variable slope 4-parameter curve fit analysis.
Additional compounds of the present disclosure were synthesized in a manner similar to the compounds described above and understood by a person of ordinary skill in the art. The inhibitory activity of the compounds of the present disclosure against LPAR1 was measured using the above-referenced Arrestin Assay protocol.

T1 sequence (Q92633 whole entry): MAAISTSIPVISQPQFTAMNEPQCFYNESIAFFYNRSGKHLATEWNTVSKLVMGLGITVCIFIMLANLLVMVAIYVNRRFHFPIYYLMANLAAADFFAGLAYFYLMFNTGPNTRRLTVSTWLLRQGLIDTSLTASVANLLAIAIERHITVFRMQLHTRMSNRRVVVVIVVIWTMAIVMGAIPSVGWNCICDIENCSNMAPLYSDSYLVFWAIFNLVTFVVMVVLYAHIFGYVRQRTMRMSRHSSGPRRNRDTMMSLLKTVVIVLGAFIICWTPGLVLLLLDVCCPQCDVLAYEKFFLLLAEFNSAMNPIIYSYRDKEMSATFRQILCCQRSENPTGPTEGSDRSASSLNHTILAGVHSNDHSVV

SMILES	IC50 [nM]
COCC[C@@H](CN1CCC(C(=O)Nc2ccc(Cl)cc2OC(F)F)(n2ncc(F)c2C(C)C)CC1)C(=O)O [Compound 190, (2S)-2-[[4-[[4-chloro-2-(difluoromethoxy)phenyl]carbamoyl]-4-(4-fluoro-5-isopropyl-pyrazol-1-yl)-1-piperidyl]methyl]-4-methoxy-butanoic acid]	37.9
CC(C)c1ccnn1C1(C(=O)Nc2ccc(Cl)cc2OC(F)F)CCN(CC(COCC(F)(F)F)C(=O)O)CC1 (centres unmarked) [Compound 232, 2-[[4-[[4-chloro-2-(difluoromethoxy)phenyl]carbamoyl]-4-(5-isopropylpyrazol-1-yl)-1-piperidyl]methyl]-3-(2.2,2-trifluoroethoxy)propanoic acid]	8.37
CC(C)c1ccnn1C1(C(=O)Nc2ccc(Cl)cc2OC(F)F)CCN(CC2(C(=O)O)CCN(C(=O)O[C@@H]3CCOC3)CC2)CC1 [Compound 110, 4-[[4-[[4-chloro-2-(difluoromethoxy)phenyl]carbamoyl]-4-(5-isopropylpyrazol-1-yl)-1-piperidyl]methyl]-1-[(3R)-tetrahydrofuran-3-yl]oxycarbonyl-piperidine-4-carboxylic acid]	75.5
CC(C)c1ccnn1C1(C(=O)Nc2ccc(Cl)cc2OC(F)F)CCN(C[C@]2(C(=O)O)CC[C@](C)(O)CC2)CC1 [Compound 175, (1r,4r)-1-[[4-[[4-chloro-2-(difluoromethoxy)phenyl]carbamoyl]-4-(5-isopropylpyrazol-1-yl)-1-piperidyl]methyl]-4-hydroxy-4-methyl-cyclohexanecarboxylic acid]	122
CC(C)c1ccnn1C1(C(=O)Nc2ccc(Cl)cc2OC(F)F)CCN(C[C@H](C)C(=O)O)CC1 [Compound 87, (2S)-3-[4-[[4-chloro-2-(difluoromethoxy)phenyl]carbamoyl]-4-(5-isopropylpyrazol-1-yl)-1-piperidyl]-2-methyl-propanoic acid]	32.3
COc1cccc([C@H](CN2CCC(C(=O)Nc3ccc(Cl)cc3OC(F)F)(n3nccc3C(C)C)CC2)C(=O)O)c1 (single isomer, unassigned) [Compound 32]	3.11
CC(C)c1c(F)cnn1C1(C(=O)Nc2ccc(Cl)cc2OC(F)F)CCN(C[C@@H](CO)C(=O)O)CC1 [Compound 209, (2S)-2-[[4-[[4-chloro-2-(difluoromethoxy)phenyl]carbamoyl]-4-(4-fluoro-5-isopropyl-pyrazol-1-yl)-1-piperidyl]methyl]-3-hydroxy-propanoic acid]	33.6
CC(C)c1ccnn1C1(C(=O)Nc2ccc(Cl)cc2OC(F)F)CCN(CC(CN2CCOCC2)C(=O)O)CC1 (centres unmarked) [Compound 125, 2-[[4-[[4-chloro-2-(difluoromethoxy)phenyl]carbamoyl]-4-(5-isopropylpyrazol-1-yl)-1-piperidyl]methyl]-3-morpholino-propanoic acid]	113
CC(C)c1ccnn1C1(C(=O)Nc2ccc(Cl)cc2OC(F)F)CCN(C[C@@H](COCC(F)(F)F)C(=O)O)CC1 [Compound 233, (2S)-2-[[4-[[4-chloro-2-(difluoromethoxy)phenyl]carbamoyl]-4-(5-isopropylpyrazol-1-yl)-1-piperidyl]methyl]-3-(2,2,2-trifluoroethoxy)propanoic acid]	8.94
CCOC[C@@H](CN1CCC(C(=O)Nc2ccc(Cl)cc2OC(F)F)(n2nccc2C(C)C)CC1)C(=O)O [Compound 231, (2R)-2-[[4-[[4-chloro-2-(difluoromethoxy)phenyl]carbamoyl]-4-(5-isopropylpyrazol-1-yl)-1-piperidyl]methyl]-3-ethoxy-propanoic acid]	14.2
CC(C)c1ccnn1C1(C(=O)Nc2ccc(Cl)cc2OC(F)F)CCN(C[C@@]2(C(=O)O)CCCO2)CC1 [Compound 20, (2R)-2-[[4-[[4-chloro-2-(difluoromethoxy)phenyl]carbamoyl]-4-(5-isopropylpyrazol-1-yl)-1-piperidyl]methyl] tetrahydrofuran-2-carboxylic acid]	28.8
CC(C)c1c(F)cnn1C1(C(=O)Nc2ccc(Cl)cc2OC(F)F)CCN(C[C@H](C(=O)O)C2CCOCC2)CC1 [Compound 141, (28)-3-[4-[[4-chloro-2-(difluoromethoxy)phenyl]carbamoyl]-4-(4-fluoro-5-isopropyl-pyrazol-1-yl)-1-piperidyl]-2-tetrahydropyran-4-yl-propanoic acid]	25.7
CC(C)c1ccnn1C1(C(=O)Nc2ccc(Cl)cc2OC(F)F)CCN(CC(C)(C(=O)O)C2CCOCC2)CC1 (centres unmarked) [Compound 52, 3-[4-[[4-chloro-2-(difluoromethoxy)phenyl]carbamoyl]-4-(5-isopropylpyrazol-1-yl)-1-piperidyl]-2-methyl-2-tetrahydropyran-4-yl-propanoic acid]	70.5
CC1(C)OCc2cnn(C3(C(=O)Nc4ccc(Cl)cc4OC(F)F)CCN(C[C@H](C(=O)O)C4CCOCC4)CC3)c21 [Compound 176, (2R)-3-[4-[[4-chloro-2-(difluoromethoxy)phenyl]carbamoyl]-4-(6,6-dimethyl-4H-furo[3,4-c]pyrazol-1-yl)-1-piperidyl]-2-tetrahydropyran-4-yl-propanoic acid]	95.5
CC(C)c1ccnn1C1(C(=O)Nc2ccc(Cl)cc2OC(F)F)CCN([C@H]2C[C@](O)(C(=O)O)C2)CC1 [Compound 164, (1s,3s)-3-[4-[[4-chloro-2-(difluoromethoxy)phenyl]carbamoyl]-4-(5-isopropylpyrazol-1-yl)-1-piperidyl]-1-hydroxy-cyclobutanecarboxylic acid]	72.4
COCCC(=O)N1CC(CN2CCC(C(=O)Nc3ccc(Cl)cc3OC(F)F)(n3nccc3C(C)C)CC2)(C(=O)O)C1 [Compound 102, 3-[[4-[[4-chloro-2-(difluoromethoxy)phenyl]carbamoyl]-4-(5-isopropylpyrazol-1-yl)-1-piperidyl]methyl]-1-(3-methoxypropanoyl) azetidine-3-carboxylic acid]	158
CC(C)c1ccnn1C1(C(=O)Nc2ccc(Cl)cc2OC(F)F)CCN(CC2(C(=O)O)CCCC2)CC1 [Compound 12, 1-[[4-[[4-chloro-2-(difluoromethoxy)phenyl]carbamoyl]-4-(5-isopropylpyrazol-1-yl)-1-piperidyl]methyl] cyclopentanecarboxylic acid]	11.4
C=C(CN1CCC(C(=O)Nc2ccc(Cl)cc2OC(F)F)(n2nccc2C(C)C)CC1)C(=O)O [Compound 143, 2-[[4-[[4-chloro-2-(difluoromethoxy)phenyl]carbamoyl]-4-(5-isopropylpyrazol-1-yl)-1-piperidyl]methyl]prop-2-enoic acid]	32.2
CCO[C@H](CN1CCC(C(=O)Nc2ccc(Cl)cc2OC(F)F)(n2nccc2C(C)C)CC1)C(=O)O [Compound 144, (2R)-3-[4-[[4-chloro-2-(difluoromethoxy)phenyl]carbamoyl]-4-(5-isopropylpyrazol-1-yl)-1-piperidyl]-2-ethoxy-propanoic acid]	55.9
CC(C)c1ccnn1C1(C(=O)Nc2ccc(Cl)cc2OC(F)F)CCN(C[C@H](CO)C(=O)O)CC1 [Compound 183, (2R)-2-[[4-[[4-chloro-2-(difluoromethoxy)phenyl]carbamoyl]-4-(5-isopropylpyrazol-1-yl)-1-piperidyl]methyl]-3-hydroxy-propanoic acid]	39.4
CC(C)c1ccnn1C1(C(=O)Nc2ccc(Cl)cc2OC(F)F)CCN(CC(CCO)C(=O)O)CC1 (centres unmarked) [Compound 133, 2-[[4-[[4-chloro-2-(difluoromethoxy)phenyl]carbamoyl]-4-(5-isopropylpyrazol-1-yl)-1-piperidyl]methyl]-4-hydroxy-butanoic acid]	74.8
CC(C)c1ccnn1C1(C(=O)Nc2ccc(Cl)cc2OC(F)F)CCN(C[C@@H](C(=O)O)N2CCOC(C)(C)C2)CC1 [Compound 165, (2S)-3-[4-[[4-chloro-2-(difluoromethoxy)phenyl]carbamoyl]-4-(5-isopropylpyrazol-1-yl)-1-piperidyl]-2-(2,2-dimethylmorpholin-4-yl)propanoic acid]	137
CC(C)c1ccnn1C1(C(=O)Nc2ccc(Cl)cc2OC(F)F)CCN(CC2(C(=O)O)Cc3ccccc3C2)CC1 [Compound 63, 2-[[4-[[4-chloro-2-(difluoromethoxy)phenyl]carbamoyl]-4-(5-isopropylpyrazol-1-yl)-1-piperidyl]methyl]indane-2-carboxylic acid]	4.5
